The structures appear in SMILES notation.

Consider 36 compounds from patent publication US10544095B2 (Pfizer Inc., priority 2015, dated 2020).

Sequence of hTDO2 in human glioblastoma A172 cells (P48775 whole entry): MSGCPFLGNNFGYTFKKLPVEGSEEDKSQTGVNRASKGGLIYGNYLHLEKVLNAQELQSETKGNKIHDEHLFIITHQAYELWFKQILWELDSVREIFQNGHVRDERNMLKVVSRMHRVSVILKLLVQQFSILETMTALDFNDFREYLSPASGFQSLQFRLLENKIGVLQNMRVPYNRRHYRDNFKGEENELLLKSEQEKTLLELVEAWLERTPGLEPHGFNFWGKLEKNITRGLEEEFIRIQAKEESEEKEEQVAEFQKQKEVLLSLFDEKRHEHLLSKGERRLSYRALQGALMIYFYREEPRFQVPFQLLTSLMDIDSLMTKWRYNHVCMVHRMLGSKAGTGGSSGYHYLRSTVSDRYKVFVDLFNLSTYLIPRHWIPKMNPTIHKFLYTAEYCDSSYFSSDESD

The experiment concerns the target hTDO2 in human glioblastoma A172 cells (Homo sapiens (Human), UniProt P48775). As to the kind of experiment: Cellular assay for TDO2 activity determination in A172 cells. Format: cell-based. The settings on record: overnight incubation, kynurenine absorbance at 480 nm. In a few lines:
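Glioblastoma A172 cells with endogenous hTDO2, 1.25×10^4 cells/well, incubated overnight at 37° C. with ten serial compound concentrations in IMDM with 2% FBS. Supernatant kynurenine, after TCA precipitation and 4-(dimethylamino)-benzaldehyde reaction, read at 480 nm against kynurenine standard curve; data curve-fitted.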
In turn, `Cc1ccc(-c2c[nH]c3cc(F)ccc23)cc1S(=O)(=O)NCCN` [Example 56, N-(2-aminoethyl)-5-(6-fluoro-1H-indol-3-yl)-2-methylbenzenesulfonamide] had an IC50 of 670 nM. This lies in the sub-micromolar range.
In turn, `O=S(=O)(c1ccc(-c2c[nH]c3cc(F)ccc23)cc1)N1C[C@H](O)[C@@H](O)[C@@H]1CO` [Example 134, (2S,3S,4S)-1-((4-(6-fluoro-1H-indol-3-yl)phenyl)sulfonyl)-2-(hydroxymethyl) pyrrolidine-3,4-diol] came in with an IC50 of 125 nM.
On to `COCc1cc(-c2c[nH]c3cc(F)ccc23)ccc1S(=O)(=O)NCCC(N)=O` [Example 165, 3-((4-(6-fluoro-1H-indol-3-yl)-2-(methoxymethyl)phenyl)-sulfonamido) propanamide], for which the IC50 stood at 341 nM. Compared with the last compound, the IC50 is about 2.7-fold higher.
With `O=C(NCCNS(=O)(=O)c1ccc(-c2c[nH]c3cc(F)ccc23)cc1)N1CCOCC1` [Example 108, N-(2-(4-(6-fluoro-1H-indol-3-yl)phenylsulfonamido)ethyl)-morpholine 4-carboxamide], the IC50 is 170 nM.
In turn, `O=C(CCNS(=O)(=O)c1ccc(-c2c[nH]c3cc(F)ccc23)cc1)N1C[C@@H](O)[C@H](O)C1` [Example 170, (+)-N-(3-((3R,4R)-3,4-dihydroxypyrrolidin-1-yl)-3-oxopropyl)-4-(6-fluoro-1H-indol-3-yl) benzenesulfonamide] yielded a half-maximal inhibitory concentration (IC50) of 1210 nM.
As for `O=S(=O)(c1ccc(-c2c[nH]c3cc(F)ccc23)cc1)N1CC[C@@H](O)[C@H](O)C1` [Example 130, (3R,4R)-1-((4-(6-fluoro-1H-indol-3-yl)phenyl)sulfonyl)piperidine-3,4-diol], half-maximal inhibition (IC50) was put at 96 nM.
Consider `CN(C)CCc1cc(-c2c[nH]c3cc(F)ccc23)ccc1S(N)(=O)=O` [Example 141, 2-(2-(dimethylamino)ethyl)-4-(6-fluoro-1H-indol-3-yl)benzenesulfonamide], for which half-maximal inhibition (IC50) was put at 295 nM. Compared with the last compound, the IC50 is about 3.1-fold higher.
Then `O=S(=O)(N[C@H]1CCOC1)c1ccc(-c2c[nH]c3cc(F)ccc23)cc1` [Example 64, (S)-4-(6-fluoro-1H-indol-3-yl)-N-(tetrahydrofuran-3-yl)-benzenesulfonamide], with 270 nM; and `O=S(=O)(NC1CNC1)c1ccc(-c2c[nH]c3cc(F)ccc23)cc1` [Example 68, N-(azetidin-3-yl)-4-(6-fluoro-1H-indol-3-yl)benzenesulfonamide], with 140 nM; and `N#Cc1cc(S(=O)(=O)N2CCNCC2)ccc1-c1c[nH]c2cc(F)ccc12` [Example 37, 2-(6-fluoro-1H-indol-3-yl)-5-(piperazin-1-ylsulfonyl)benzonitrile], with 3700 nM.
To `CN(CC(O)c1cccnn1)S(=O)(=O)c1ccc(-c2c[nH]c3cc(F)ccc23)cc1` (stereo not drawn) [Example 121, 4-(6-fluoro-1H-indol-3-yl)-N-(2-hydroxy-2-(pyridazin-3-yl)ethyl)-N-methylbenzene-sulfonamide] belongs 156 nM; to `NC(=O)n1cc(-c2ccc(S(=O)(=O)N3CCNCC3)cc2)c2ccc(F)cc21` [Example 78, 6-fluoro-3-(4-(piperazin-1-ylsulfonyl)phenyl)-1H-indole-1-carboxamide], 18000 nM; to `CC(C)Cc1cc(-c2c[nH]c3cc(F)ccc23)ccc1S(=O)(=O)NCCC(N)=O` [Example 164, 3-((4-(6-fluoro-1H-indol-3-yl)-2-isobutylphenyl)-sulfonamido)propanamide], 5930 nM.
Turning to `CN(C)CCCN1CCN(S(=O)(=O)c2ccc(-c3c[nH]c4cc(F)ccc34)cc2)CC1=O` [Example 154, 1-(3-(dimethylamino)propyl)-4-((4-(6-fluoro-1H-indol-3-yl)phenyl)sulfonyl) piperazine-2-one], the concentration for half-maximal inhibition (IC50) is 360 nM.
For `O=S(=O)(c1ccc(-c2c[nH]c3cc(F)ccc23)cc1)N1CCC(O)(c2ccncn2)C1` (stereo not drawn) [Example 119, 1-((4-(6-fluoro-1H-indol-3-yl)phenyl)sulfonyl)-3-(pyrimidin-4-yl)pyrrolidin-3-ol], it took 123 nM to reach half-maximal inhibition (IC50).
Regarding `O=S(=O)(c1ccc(-c2c[nH]c3cc(F)ccc23)c(F)c1)N1CCNCC1` [Example 22, 6-fluoro-3-(2-fluoro-4-(piperazin-1-ylsulfonyl)-phenyl)-1H-indole], the IC50 was 600 nM.
Compound `C[C@H]1CN(S(=O)(=O)c2ccc(-c3c[nH]c4cc(F)ccc34)cc2)C[C@H](C)N1` [Example 15, 3-(4-(((3S,5S)-3,5-dimethylpiperazin-1-yl)sulfonyl)phenyl)-6-fluoro-1H-indole] had an IC50 of 220 nM.
In turn, `C[C@@H](CO)NS(=O)(=O)c1ccc(-c2c[nH]c3cc(F)ccc23)cc1` [Example 101, (−)-(6-fluoro-1H-indol-3-yl)-N-[(2S)-1-hydroxypropan-2-yl]benzenesulfonamide] gave a 50% inhibitory concentration (IC50) of 93 nM.
Turning to `Cc1nc(CCNS(=O)(=O)c2ccc(-c3c[nH]c4cc(F)ccc34)cc2)c[nH]1` [Example 161, 4-(6-fluoro-1H-indol-3-yl)-N-(2-(2-methyl-1H-imidazol-4-yl)ethyl)benzenesulfonamide], the IC50 came out at 220 nM.
The compound `NCCNS(=O)(=O)c1cc(Cl)cc(-c2c[nH]c3cc(F)ccc23)c1` [Example 38, N-(2-aminoethyl)-3-chloro-5-(6-fluoro-1H-indol-3-yl)-benzenesulfonamide] returned a concentration for half-maximal inhibition (IC50) of 2500 nM.
With `CN1CCN(C(=O)NCCNS(=O)(=O)c2ccc(-c3c[nH]c4cc(F)ccc34)cc2)CC1` [Example 110, N-(2-(4-(6-fluoro-1H-indol-3-yl)phenylsulfonamido)ethyl)-4-methylpiperazine-1-carboxamide], 180 nM corresponded to half-maximal inhibition (IC50).
Consider `CC(=O)n1cc(-c2ccc(S(=O)(=O)N3CCNCC3)cc2)c2ccc(F)cc21` [Example 70, 1-(6-fluoro-3-(4-(piperazin-1-ylsulfonyl)phenyl)-1H-indol-1-yl)ethanone], for which the IC50 stood at 580 nM.
To `CN1CCN(C(=O)CCNS(=O)(=O)c2ccc(-c3c[nH]c4cc(F)ccc34)cc2)CC1` [Example 103, 4-(6-fluoro-1H-indol-3-yl)-N-(3-(4-methylpiperazin-1-yl)-3-oxopropyl) benzenesulfonamide] belongs 260 nM; to `CC(NS(=O)(=O)c1ccc(-c2c[nH]c3cc(F)ccc23)cc1)c1nncn1C` (stereo not drawn) [Example 85, 4-(6-fluoro-1H-indol-3-yl)-N-[1-(4-methyl-4H-1,2,4-triazol-3-yl)ethyl]benzenesulfonamide], 390 nM.
`CN(CC(O)c1cnccn1)S(=O)(=O)c1ccc(-c2c[nH]c3cc(F)ccc23)cc1` (stereo not drawn) [Example 135, 4-(6-fluoro-1H-indol-3-yl)-N-(2-hydroxy-2-(pyrazin-2-yl)ethyl)-N-methylbenzene-sulfonamide]: the concentration for half-maximal inhibition (IC50) came out at 161 nM. This IC50 lies about 2.4-fold lower than the previous one.
Then `C[C@@H]1CN(S(=O)(=O)c2ccc(-c3c[nH]c4cc(F)ccc34)cc2)C[C@H](C)N1` [Example 11, 3-(4-(((cis)-3,5-dimethylpiperazin-1-yl)sulfonyl)phenyl)-6-fluoro-1H-indole], with 320 nM.
To `CNCCN1CCN(S(=O)(=O)c2ccc(-c3c[nH]c4cc(F)ccc34)cc2)CC1=O` [Example 150, 4-((4-(6-fluoro-1H-indol-3-yl)phenyl)sulfonyl)-1-(2-(methylamino)ethyl) piperazin-2-one] belongs 365 nM; to `O=C1CN(S(=O)(=O)c2ccc(-c3c[nH]c4cc(F)ccc34)cc2)CCN1C[C@@H](O)CO` [Example 146, (R)-1-(2,3-dihydroxypropyl)-4-((4-(6-fluoro-1H-indol-3-yl)phenyl)sulfonyl)piperazin-2-one], 380 nM; to `N[C@H]1CN(C(=O)CCNS(=O)(=O)c2ccc(-c3c[nH]c4cc(F)ccc34)cc2)C[C@H]1F` (single isomer, unassigned) [Example 173], 919 nM.
`Cc1nnc(CNS(=O)(=O)c2ccc(-c3c[nH]c4cc(F)ccc34)cc2)o1` [Example 89, 4-(6-fluoro-1H-indol-3-yl)-N-((5-methyl-1,3,4-oxadiazol-2-yl)methyl) benzenesulfonamide] registered an IC50 of 200 nM.
With `NS(=O)(=O)c1ccc(-c2c[nH]c3cc(F)ccc23)cc1CC(F)(F)F` [Example 142, 4-(6-fluoro-1H-indol-3-yl)-2-(2,2,2-trifluoroethyl)-benzenesulfonamide], inhibition was half-maximal at 247 nM (IC50).
To `O=S(=O)(c1ccc(-c2c[nH]c3cc(F)ccc23)cc1)N1C[C@H](O)[C@@H](O)C1` [Example 66, (3S,4S) 1-[4-(6-Fluoro-1H-indol-3-yl)-benzenesulfonyl]-pyrrolidine-3,4-diol] belongs 84 nM.
With `Cn1cnnc1CNS(=O)(=O)c1ccc(-c2c[nH]c3cc(F)ccc23)cc1` [Example 92, 4-(6-fluoro-1H-indol-3-yl)-N-[(4-methyl-4H-1,2,4-triazol-3-yl)methyl]-benzenesulfonamide], it took 560 nM to reach half-maximal inhibition (IC50).
`NCCNS(=O)(=O)c1ccc(F)c(-c2c[nH]c3cc(F)ccc23)c1` [Example 62, N-(2-aminoethyl)-4-fluoro-3-(6-fluoro-1H-indol-3-yl)benzene-sulfonamide] showed an IC50 of 3500 nM.
To `O=C(CCNS(=O)(=O)c1ccc(-c2c[nH]c3cc(F)ccc23)cc1)N1CCNCC1` [Example 102, 4-(6-fluoro-1H-indol-3-yl)-N-(3-oxo-3-(piperazin-1-yl)propyl) benzenesulfonamide] belongs 260 nM.
Compound `NCCNS(=O)(=O)c1cc(F)cc(-c2c[nH]c3cc(F)ccc23)c1` [Example 44, N-(2-aminoethyl)-3-fluoro-5-(6-fluoro-1H-indol-3-yl)-benzenesulfonamide] gave an IC50 of 430 nM.

Broadly, the IC50 is the concentration needed to halve the response being measured. Higher therefore signals lower potency.
